Test results published in article PMC10265003 (Royal Society Open Science, 2023).
Like-named read-outs stand apart in the source and are kept apart here. Positions of bridges follow the written chain, without caps; N, C: chain ends. Non-standard residues stand in square brackets, D forms with d. Residues, ends and D or L forms follow the SMILES beside them. Chains are numbered I, II in the order given. Bpa = N[C@@H](Cc1ccc(C(=O)c2ccccc2)cc1)C(=O)O; Dip = N[C@H](C(=O)O)C(c1ccccc1)c1ccccc1; 1Nal = N[C@@H](Cc1cccc2ccccc12)C(=O)O; hPhe = N[C@@H](CCc1ccccc1)C(=O)O; Ahx = NCCCCCC(=O)O

Tests used:
[1] = test system: MCF-7 breast cancer line; assay type: cell-based, human
Method: (§1) The MTT assay was performed in accordance with previous reports. Briefly, the cells were seeded with a complete medium in 96-well plates at a rate of 10 000 cells and 100 µl per well, and adhesion to the plates was allowed for 24 h. Later, the complete medium was removed, and an incomplete medium was added for synchronization for another 24 h. The cells were then incubated at 37°C for 2 h with 100 µl of peptide at the evaluated concentrations (200, 100, 50, 25, 12.5 and 6.25 µg ml^−1). Next, the peptide was removed from the well and 100 µl of incomplete medium with 10% MTT was added and incubated for 4 h. The medium was replaced with 100 µl of isopropanol, and after 30 min of incubation at 37°C, the absorbance was measured at 575 nm. As a negative control, an incomplete culture medium with 10% MTT was used, and as a positive control, cells without MTT treatment were used. The IC50 value was determined from figure 1 (peptide concentration versus per cent cell viability) using a nonlinear regression model with variable slope and GraphPad Prism 9 statistical analysis software.

[2] = test system: human erythrocytes; assay type: cell-based
Method: Haemolysis assays were performed in accordance with Cárdenas et al.. The blood was donated by healthy volunteers with blood type O^+. First, 5 ml of peripheral blood in EDTA was centrifuged at 500 r.p.m. for 15 min, and the erythrocytes were separated and washed three times with 0.9% saline solution. Then 100 µl of peptide solution (final concentrations of 200 at 6.2 µg ml^−1) was mixed with 100 µl of erythrocytes (2% haematocrit) and incubated at 37°C for 2 h. It was then centrifuged at 2500 r.p.m. for 5 min and the absorbance of the supernatant was measured at 450 nm. Two controls were used; positive control: distilled water, and negative control: saline solution 0.9%.

[3] = test system: human primary fibroblasts; assay type: cell-based; conditions: for IC50 fibroblasts: 2 h
Excerpt: Rink amide resin, Fmoc-Arg(Pbf)-OH, Fmoc-Trp(Boc)-OH, Fmoc-Gln(Trt)-OH, Fmoc-Phe-OH, Fmoc-Lys(Boc)-OH, Fmoc-Leu-OH, Fmoc-Gly-OH, Fmoc-6-Ahx-OH, Fmoc-Lys(Fmoc)-OH, Triton-X, piperidine, N,N-dimethylformamide (DMF), dichloromethane (DCM), dicyclohexylcarbodiimide (DCC), 1-hydroxy-6-chloro-benzotriazole (6-Cl-HOBt), ninhydrin, potassium cyanide (KCN), ethanol, pyridine, phenol, trifluoroacetic acid (TFA), ethyl ether, triisopropylsilane (TIS), ethanedithiol (EDT), acetonitrile (ACN), methanol (MeOH) and solid phase extraction columns Supelco, Trypsin-EDTA solution and pepsin 2500 units mg^−1 were purchased from Sigma-Aldrich (St Louis, MO, USA). The non-natural amino acids diphenylalanine, 1-naphthyl-phenylalanine, 4-benzoyl-phenylalanine, homophenylalanine (hF), 4-(Fmoc-amino) benzoic acid (4-Abz) and 2-(Fmoc-amino) benzoic acid (2-Abz) were obtained from AAPPTec (Louisville, KY, USA). The cell lines MCF-7, HeLa, HEK-293 were purchased from ATCC (Manassas, VA). The primary cell culture of fibroblasts was obtained from the foreskin by the Laboratory of Cellular Physiology of the National University of Colombia, and the fibroblasts were cultured and frozen. Some vials were thawed and cultured for up to seven passes, since no transformation/immortalization was done. Annexin V and Alexa Fluor 488 conjugate was purchased from Invitrogen (Eugene, Oregon). The DMEM culture medium and trypsin were obtained from Sigma-Aldrich (St Louis, MO, USA). Bovine fetal serum was purchased from Gibco (Waltham, MA, USA). Calcium assay kit and Fluorescein CaspGLOW Active Caspase-8 or Caspase-9 Staining Kit were obtained for BD Biosciences (San Diego, CA, USA) and Invitrogen Thermo Fisher Scientific (Waltham, MA, USA), respectively.
as §1, with “The cells were then incubated at 37°C for 2 h with 100 µl of peptide at the evaluated concentrations (200, 100, 50, 25, 12.5 and 6.25 µg ml^−1).” left out

[4] = test system: HEK-293 human kidney cell line; assay type: cell-based; conditions: for IC50 HEK-293: 2 h
Method: as §1, with “The cells were then incubated at 37°C for 2 h with 100 µl of peptide at the evaluated concentrations (200, 100, 50, 25, 12.5 and 6.25 µg ml^−1).” left out

[5] = test system: HeLa human cervical cancer cell line; assay type: cell-based; conditions: 2 h
Method: as §1

[6] = target: pepsin (Sus scrofa, UniProt P00791); conditions: pH 2
pepsin, sequence (P00791 60-385): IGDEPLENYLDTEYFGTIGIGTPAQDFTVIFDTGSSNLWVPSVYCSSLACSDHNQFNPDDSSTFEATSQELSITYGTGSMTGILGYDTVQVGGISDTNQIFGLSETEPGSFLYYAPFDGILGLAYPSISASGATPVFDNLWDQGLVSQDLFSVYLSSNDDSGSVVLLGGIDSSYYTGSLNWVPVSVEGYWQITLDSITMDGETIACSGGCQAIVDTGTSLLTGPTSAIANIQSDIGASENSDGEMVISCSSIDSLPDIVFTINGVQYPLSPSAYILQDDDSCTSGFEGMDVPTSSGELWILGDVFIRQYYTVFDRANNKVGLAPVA
Method: Pepsin was dissolved in 0.010 M HCl (pH 2.0). An aliquot of 50 µl was added to each peptide solution in a 1 : 100 (w/w) ratio. The peptides were dissolved in H2O-TFA 0.05% (v/v). This was incubated at 37°C for 3 h, aliquots were taken at 0 and 3 h, and the samples were heated for 5 min and then cooled at 4°C for the thermal inactivation of pepsin and characterized via HPLC and LC-MS.

[7] = target: trypsin (Sus scrofa, UniProt P00761)
trypsin, sequence (P00761 9-231): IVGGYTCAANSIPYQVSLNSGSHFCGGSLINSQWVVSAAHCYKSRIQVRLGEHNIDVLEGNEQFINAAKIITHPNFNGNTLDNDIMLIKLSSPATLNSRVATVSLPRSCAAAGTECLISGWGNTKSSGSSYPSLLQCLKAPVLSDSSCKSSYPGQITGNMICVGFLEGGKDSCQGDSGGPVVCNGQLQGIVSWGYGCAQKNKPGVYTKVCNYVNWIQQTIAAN
Method: Trypsin (20 μg) was dissolved in 450 µl of the buffer supplied by the manufacturer, and 50 µl was added to each peptide solution, maintaining a protease : peptide ratio of 1 : 100 (w/w). The samples were incubated at 37°C for 24 h. Aliquots were taken at 0, 5, 10, 15 and 20 min, the enzymatic reaction was stopped by adding 1 M HCl, and the mixture was analysed via RP-HPLC and LC-MS. Bovine serum albumin (BSA) and bovine lactoferrin (bLF) were used as the positive control, and the negative control was the peptide in buffer solution without trypsin.

[8] = test system: CD1 mice; test: Peptide toxicity in vivo model (Irwin test, survival)
Method: Experiment 1. CD1 mice male (eight weeks old, weighing 33–35 g) were housed in groups of six animals per cage for each peptide ^26[F] and ^26[1-Nal]; three mice were inoculated by intraperitoneal via ip, and three mice were inoculated by subcutaneous via sc. Mice inoculated via ip or sc with saline solution were used as control. The peptide was dissolved in saline solution (7 mg ml^−1) and the mice were inoculated only one time with 0.33–0.35 ml (dosage 70 mg kg^−1) via ip or sc. Experiment 2. CD1 mice female (n = 4, eight weeks old, weighing 33–35 g) were inoculated only one time with peptide ^26[F] (dosage 140 mg kg^−1) or ^26[1-Nal] (8.8 to 70 mg kg^−1).
To determine the toxicity of peptides ^26[F] and ^26[1-Nal] in vivo model, a preliminary study was carried out in CD1 male mice. The Irwin test was used to evaluate in qualitative manner the effect of peptide administration over motor functions, behaviour, physiology and pharmacological safety in rodents. This test is used as a first approach to study of the adverse effects generated by a pharmaceutical treatment in an in vivo model in preclinical test.

[9] = ratio of IC50 values, in brackets

For `CC(C)C[C@H](NC(=O)[C@H](CCCCN)NC(=O)[C@H](CCCCN)NC(=O)[C@H](Cc1cccc2ccccc12)NC(=O)[C@H](CCCNC(=N)N)NC(=O)[C@H](Cc1c[nH]c2ccccc12)NC(=O)[C@H](CCC(N)=O)NC(=O)[C@H](Cc1c[nH]c2ccccc12)NC(=O)[C@H](CCCNC(=N)N)NC(=O)[C@@H](N)CCCNC(=N)N)C(=O)NCC(=O)NCCCC[C@H](NC(=O)CNC(=O)[C@H](CC(C)C)NC(=O)[C@H](CCCCN)NC(=O)[C@H](CCCCN)NC(=O)[C@H](Cc1cccc2ccccc12)NC(=O)[C@H](CCCNC(=N)N)NC(=O)[C@H](Cc1c[nH]c2ccccc12)NC(=O)[C@H](CCC(N)=O)NC(=O)[C@H](Cc1c[nH]c2ccccc12)NC(=O)[C@H](CCCNC(=N)N)NC(=O)[C@@H](N)CCCNC(=N)N)C(=O)NCCCCCC(N)=O` [^26[1-Nal], (RRWQWR-1-Nal-KKLG)2-K-Ahx] (I: H-RRWQWR[1Nal]KKLGK[Ahx]-NH2 / II: H-RRWQWR[1Nal]KKLG; amide I:12-II:C), the IC50 ([1]; 2 h) was 14 µM, the “IC50 MCF-7” value ([1]; 2 h) was 48(14) µg mL^−1 and the IC50 erythrocytes ([2]; 2 h) was >200(>58) µg mL^−1. For the same compound, the “selectivity index IC50 erythrocytes/IC50 MCF-7” value ([2]; ratio of IC50 values) was over 4.1, the “selectivity index IC50 erythrocytes/IC50 HeLa” value [2, 9] was over 3.6 and the IC50 fibroblasts [3] was 30(9) µg mL^−1. For the same compound, the “selectivity index IC50 fibroblasts/IC50 MCF-7” value ([3]; ratio of IC50 values) was 0.6, the “selectivity index IC50 fibroblasts/IC50 HeLa” value [3, 9] was 0.5 and the “IC50 HEK-293” value [4] was 86(25) µg mL^−1. For the same compound, the “selectivity index IC50 HEK-293/IC50 MCF-7” value ([4]; ratio of IC50 values) was 1.8, the “selectivity index IC50 HEK-293/IC50 HeLa” value [4, 9] was 1.5 and the “IC50 HeLa” value [5] was 55(16) µg mL^−1. For the same compound, the “proteolytic degradation by pepsin” value [6] was “unaffected”, the “proteolytic degradation by trypsin, 10 min” value [7] was “less degradation, with the majority being intact dimeric peptide” and the “proteolytic degradation by trypsin, 3 h” value [7] was “three main species, with tR = 3.7, 5.4 min and unaffected peptide tR = 6.4 min”. The “observed signs after ip administration (Irwin test)” value ([8]; experiment 1, male CD1 mice, ip 70 mg kg^−1) was “motor function decreased 30 min after peptide administration and abdominal contortions were observed”, the “survival (%) ip” value ([8]; experiment 1, male CD1 mice, single ip dose 70 mg kg^−1, n = 3, one week of observation) was 33% and the “survival (%) sc” value ([8]; experiment 1, male CD1 mice, single sc dose 70 mg kg^−1, n = 3) was 100%. The “survival (%) ip” value ([8]; experiment 2, female CD1 mice, single ip dose 8.8 mg kg^−1, n = 3) was 100%, the “survival (%) ip” value ([8]; experiment 2, female CD1 mice, single ip dose 17.5 mg kg^−1, n = 3) was 100% and the “survival (%) ip” value ([8]; experiment 2, female CD1 mice, single ip dose 35.0 mg kg^−1, n = 3) was 100%. The “survival (%) ip” value ([8]; experiment 2, female CD1 mice, single ip dose 70.0 mg kg^−1, n = 3) was 100%.
In the case of `CC(C)C[C@H](NC(=O)[C@H](CCCCN)NC(=O)[C@H](CCCCN)NC(=O)[C@H](Cc1ccc(C(=O)c2ccccc2)cc1)NC(=O)[C@H](CCCNC(=N)N)NC(=O)[C@H](Cc1c[nH]c2ccccc12)NC(=O)[C@H](CCC(N)=O)NC(=O)[C@H](Cc1c[nH]c2ccccc12)NC(=O)[C@H](CCCNC(=N)N)NC(=O)[C@@H](N)CCCNC(=N)N)C(=O)NCC(=O)NCCCC[C@H](NC(=O)CNC(=O)[C@H](CC(C)C)NC(=O)[C@H](CCCCN)NC(=O)[C@H](CCCCN)NC(=O)[C@H](Cc1ccc(C(=O)c2ccccc2)cc1)NC(=O)[C@H](CCCNC(=N)N)NC(=O)[C@H](Cc1c[nH]c2ccccc12)NC(=O)[C@H](CCC(N)=O)NC(=O)[C@H](Cc1c[nH]c2ccccc12)NC(=O)[C@H](CCCNC(=N)N)NC(=O)[C@@H](N)CCCNC(=N)N)C(=O)NCCCCCC(N)=O` [^26[Bpa], (RRWQWR-Bpa-KKLG)2-K-Ahx] (I: H-RRWQWR[Bpa]KKLGK[Ahx]-NH2 / II: H-RRWQWR[Bpa]KKLG; amide I:12-II:C), the IC50 ([1]; MTT, MCF-7, peptide treatment for 2 hours at 37°C, three independent experiments with n = 4, nonlinear regression, read-out: IC50) is reported as 17 µM.
`CC(C)C[C@H](NC(=O)[C@H](CCCCN)NC(=O)[C@H](CCCCN)NC(=O)[C@@H](NC(=O)[C@H](CCCNC(=N)N)NC(=O)[C@H](Cc1c[nH]c2ccccc12)NC(=O)[C@H](CCC(N)=O)NC(=O)[C@H](Cc1c[nH]c2ccccc12)NC(=O)[C@H](CCCNC(=N)N)NC(=O)[C@@H](N)CCCNC(=N)N)C(c1ccccc1)c1ccccc1)C(=O)NCC(=O)NCCCC[C@H](NC(=O)CNC(=O)[C@H](CC(C)C)NC(=O)[C@H](CCCCN)NC(=O)[C@H](CCCCN)NC(=O)[C@@H](NC(=O)[C@H](CCCNC(=N)N)NC(=O)[C@H](Cc1c[nH]c2ccccc12)NC(=O)[C@H](CCC(N)=O)NC(=O)[C@H](Cc1c[nH]c2ccccc12)NC(=O)[C@H](CCCNC(=N)N)NC(=O)[C@@H](N)CCCNC(=N)N)C(c1ccccc1)c1ccccc1)C(=O)NCCCCCC(N)=O` [^26[Dip], (RRWQWR-Dip-KKLG)2-K-Ahx] (I: H-RRWQWR[Dip]KKLGK[Ahx]-NH2 / II: H-RRWQWR[Dip]KKLG; amide I:12-II:C) showed an IC50 ([1]; 2 h) of 34 µM.
For `CC(C)C[C@H](NC(=O)[C@H](CCCCN)NC(=O)[C@H](CCCCN)NC(=O)[C@H](CCc1ccccc1)NC(=O)[C@H](CCCNC(=N)N)NC(=O)[C@H](Cc1c[nH]c2ccccc12)NC(=O)[C@H](CCC(N)=O)NC(=O)[C@H](Cc1c[nH]c2ccccc12)NC(=O)[C@H](CCCNC(=N)N)NC(=O)[C@@H](N)CCCNC(=N)N)C(=O)NCC(=O)NCCCC[C@H](NC(=O)CNC(=O)[C@H](CC(C)C)NC(=O)[C@H](CCCCN)NC(=O)[C@H](CCCCN)NC(=O)[C@H](CCc1ccccc1)NC(=O)[C@H](CCCNC(=N)N)NC(=O)[C@H](Cc1c[nH]c2ccccc12)NC(=O)[C@H](CCC(N)=O)NC(=O)[C@H](Cc1c[nH]c2ccccc12)NC(=O)[C@H](CCCNC(=N)N)NC(=O)[C@@H](N)CCCNC(=N)N)C(=O)NCCCCCC(N)=O` [^26[hF], (RRWQWR-hF-KKLG)2-K-Ahx] (I: H-RRWQWR[hPhe]KKLGK[Ahx]-NH2 / II: H-RRWQWR[hPhe]KKLG; amide I:12-II:C), the IC50 ([1]; 2 h) was 18 µM, the “IC50 MCF-7” value ([1]; 2 h) was 60(18) µg mL^−1 and the IC50 erythrocytes ([2]; 2 h) was >200(>59) µg mL^−1. The “selectivity index IC50 erythrocytes/IC50 HeLa” value ([2]; 2 h) was over 3.7, the “selectivity index IC50 erythrocytes/IC50 MCF-7” value ([2]; 2 h) was over 3.3 and the “selectivity index IC50 fibroblasts/IC50 HeLa” value [3] was 1.2. For the same compound, the “selectivity index IC50 fibroblasts/IC50 MCF-7” value [3] was 1.0, the IC50 fibroblasts [3] was 63(19) µg mL^−1 and the “IC50 HEK-293” value [4] was 134(40) µg mL^−1. The “IC50 HeLa” value [5] was 53(16) µg mL^−1, the “proteolytic degradation by pepsin” value [6] was “unaffected” and the “proteolytic degradation by trypsin, 10 min” value [7] was “two fragments were also generated”.
